Experiments:
Type in all cases: cell-based, human
[1] = tested on: SYO1 cells; assay: DNA fibre analysis, replication fork speed in SYO1 cells; conditions: 0.1 μM for two hours; p<0.0001
Procedure: (§1) FIG. 10. ATR inhibitors elicit replication fork stress in SS tumour cells. […] Error bars represent SEM from triplicate experiments. p values were derived from Student's t tests. B. Western blot illustrating PARP1 cleavage in SYO1 cells exposed to VX970 for 24 hours. C. Western blot illustrating H2AX phosphorylation (γH2AX) in SYO1 cells exposed to VX970 (0.1 μM). D. Confocal microspcopy images illustrating H2AX phosphorylation in SYO1 cells exposed to VX970 (0.1 μM, 24 hours). E. Bar chart depicting data from (D). Error bars represent SEM from 100 images. p values were derived from Student's t tests. F. Replication fork speeds in SYO1 cells exposed to 0.1 μM VX970 for two hours. p value was derived from a Student's t test. G. Replication fork speeds in HCT116 cells exposed to 0.1 μM VX970 for two hours in the presence and absence of ectopic expression of a SS18-SSX1 fusion protein. p values were derived from Student's t tests. Expression of SS18-SSX1 or exposure to VX970 reduced fork speed. Combined SS18-SSX1 expression and VX970 exposure enhanced the reduction in fork speed. H and I. FACS plots from SYO1 cells exposed to VX970.
ATRi induced cytotoxicity in tumour cells derived from carcinomas is often associated with an increase in replication fork stress.

[2] = tested on: HCT116 ARID1A isogenic cells and TOV21G cells; assay: Anaphase bridge analysis; conditions: 0.5 uM, 8 hours
Procedure: FIG. 5. ATRi effect on cell cycle progression, chromosomal instability, DNA damage and apoptosis. A. Barchart illustrating G2/M fraction in HCT116 ARID1A^+/+ and ARID1A^−/− cells synchronized in G1/early S phase by double thymidine block and released into fresh media containing DMSO or VX-970 (500 nM). The percentage of cells in G2/M was measured by FACS following PI staining. […] Cells were stained with DAPI. A minimum of 50 anaphases were scored in 3 biological replicate experiments. *p=0.023, Student's t-test. C. Bar chart illustrating frequency of anaphase bridges in TOV21G cells exposed to VX-970 (0.5 uM) or DMSO for 8 hours prior to fixation. Experiment performed as for (B). p=0.006 Student's t-test. D. Mitotic spread images from HCT116 ARID1A^+/+ and ARID1A^−/− cells following exposure to either DMSO or VX-970 (1 uM). Scale bar represents 20 um. E. Bar chart illustrating extent of chromosomal abnormalities in HCT116 ARID1A^+/+ and ARID1A^−/− cells exposed to VX-970 (1 uM). *p<0.05, Student's t-test. F. Western blot illustrating γH2AX in HCT116 ARID1A^+/+ and ARID1A^−/− cells exposed to VX-970 (0.5 uM) for the indicated time prior to cell lyses. G. Bar chart illustrating apoptotic fraction in cells exposed to increasing concentrations of VX-970 for 24 hours. Experiment as per FIG. 3I. H. Western blot illustrating PARP cleavage in HCT116 ARID1A^+/+ and ARID1A^−/− cells exposed to VX-970. […]

[3] = tested on: SYO1 cells; assay: FACS cell cycle and Caspase Glo apoptosis in SYO1 cells
Procedure: as §1

## CNCc1ccc(-c2cc(-c3nc(-c4ccc(S(=O)(=O)C(C)C)cc4)cnc3N)on2)cc1 [VX-970, 5-[4-(Isopropylsulfonyl)phenyl]-3-(3-{4-[(methylamino)methyl]phenyl}-1,2-oxazol-5-yl)-2-pyrazinamine]
[1]
  replication fork speed: significant reduction in replication fork speed
[2]
  frequency of anaphase bridges: increased level of anaphase bridges
[3]; 0.1 μM
  sub G1 fraction: increase in the sub G1 fraction
[3]; SS tumour cells exposed to VX970 (0.1 μM)
  cell cycle, S phase: arrest in S phase
[3]; SYO1 cells
  apoptosis (Caspase Glo): apoptosis, estimated by Caspase Glo, caused by exposure

Reference: patent US12233060B2, “Inhibitors of Ataxia-Telangiectasia Mutated and Rad3-related protein kinase (ATR) for use in methods of treating cancer” (THE INSTITUTE OF CANCER RESEARCH: ROYAL CANCER HOSPITAL, priority 2016, dated 2025)
